Experimental findings from ChEMBL document CHEMBL2074073, “The organic cation transporter OCT2 mediates the uptake of beta-adrenoceptor antagonists across the apical membrane of renal LLC-PK(1) cell monolayers” (Br J Pharmacol, 2000) are described below.

Assay type in all cases: functional, cell-based
The target of series [1] is T1, Solute carrier family 22 member 2 (Homo sapiens, UniProt O15244).
T1 sequence (O15244 whole entry): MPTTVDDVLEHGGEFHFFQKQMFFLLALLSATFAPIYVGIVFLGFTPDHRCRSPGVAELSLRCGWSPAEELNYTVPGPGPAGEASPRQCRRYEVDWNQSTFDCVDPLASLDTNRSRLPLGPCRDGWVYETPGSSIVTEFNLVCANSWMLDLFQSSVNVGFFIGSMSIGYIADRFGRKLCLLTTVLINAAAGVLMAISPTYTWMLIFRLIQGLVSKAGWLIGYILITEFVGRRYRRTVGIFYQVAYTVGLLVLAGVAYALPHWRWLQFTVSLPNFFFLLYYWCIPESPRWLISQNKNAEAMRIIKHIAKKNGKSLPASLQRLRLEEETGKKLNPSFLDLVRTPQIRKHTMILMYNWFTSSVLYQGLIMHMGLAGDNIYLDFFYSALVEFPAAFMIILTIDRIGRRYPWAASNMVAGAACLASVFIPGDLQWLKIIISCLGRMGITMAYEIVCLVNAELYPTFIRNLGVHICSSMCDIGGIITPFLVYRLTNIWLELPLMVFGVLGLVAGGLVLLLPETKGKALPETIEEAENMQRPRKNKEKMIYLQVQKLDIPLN
Description: (§1) TP_TRANSPORTER: uptake in OCT2-expressing mIMCD3 cells. As to conditions: mouse.

The target of series [2] is T1, Solute carrier family 22 member 2. The experiment in a line: TP_TRANSPORTER: inhibition of cimetidine uptake (Cimetidine: 100 uM, Metoprolol: 1000 uM) in OCT2-expressing mIMCD3 cells. Conditions: mouse, mimcd3, 1000 µM.
Series [3] has the same target. The experiment in a line: TP_TRANSPORTER: inhibition of cimetidine uptake (Cimetidine: 100 uM, Propranolol: 1000 uM) in OCT2-expressing mIMCD3 cells. As to conditions: mouse, mimcd3, 1000 µM.
Substrate in series [4]: C[n+]1ccc(-c2ccccc2)cc1
The series is described as §1.

As to `CN/C(=N/CCSCc1nc[nH]c1C)NC#N` [CIMETIDINE], the Activity result in series [1] was “substrate [+]”.
On to `COCCc1ccc(OCC(O)CNC(C)C)cc1` (stereo not given) [METOPROLOL], for which the Activity entry in series [2] was “inhibitor [(at a rough estimate) 30 % of control]”.
In the case of `CC(C)NCC(O)COc1cccc2ccccc12` (stereo not given) [PROPRANOLOL], the Activity entry is “inhibitor [(at a rough estimate) 10 % of control]” in series [3] and “substrate [+]” in series [1].

B1: Solute carrier family 22 member 2 (Homo sapiens) (protein)
chain: MPTTVDDVLEHGGEFHFFQKQMFFLLALLSATFAPIYVGIVFLGFTPDHRCRSPGVAELSLRCGWSPAEELNYTVPGPGPAGEASPRQCRRYEVDWNQSTFDCVDPLASLDTNRSRLPLGPCRDGWVYETPGSSIVTEFNLVCANSWMLDLFQSSVNVGFFIGSMSIGYIADRFGRKLCLLTTVLINAAAGVLMAISPTYTWMLIFRLIQGLVSKAGWLIGYILITEFVGRRYRRTVGIFYQVAYTVGLLVLAGVAYALPHWRWLQFTVSLPNFFFLLYYWCIPESPRWLISQNKNAEAMRIIKHIAKKNGKSLPASLQRLRLEEETGKKLNPSFLDLVRTPQIRKHTMILMYNWFTSSVLYQGLIMHMGLAGDNIYLDFFYSALVEFPAAFMIILTIDRIGRRYPWAASNMVAGAACLASVFIPGDLQWLKIIISCLGRMGITMAYEIVCLVNAELYPTFIRNLGVHICSSMCDIGGIITPFLVYRLTNIWLELPLMVFGVLGLVAGGLVLLLPETKGKALPETIEEAENMQRPRKNKEKMIYLQVQKLDIPLN
Broadly, the Km is the substrate concentration at which the rate is half of its maximum. As to B1, the Km in series [4] turned out to be 22.2 µM.
